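48-hour exposure; five concentrations; linearly interpolated endpoints. Here, GI50 denotes the concentration required for 50% inhibition of growth.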 Activity calls are given as the source filed them. Rule as the data show it: active = GI50 up to about 1.1 µM and inactive = higher.
Columns and labels:
Experiment in all cases: NCI tumour cell line growth inhibition, 48 h
[1] = test system: SF-268
[2] = test system: SN12C
[3] = test system: SF-295
[4] = test system: SK-MEL-2
[5] = test system: SK-OV-3
[6] = test system: 786-0
[7] = test system: UACC-62
[8] = test system: OVCAR-4
[9] = test system: COLO 205
[10] = test system: NCI-H460
[11] = test system: SK-MEL-5
[12] = test system: TK-10
[13] = test system: SK-MEL-28
[14] = test system: SW-620
[15] = test system: UO-31
[16] = test system: KM-20L2
[17] = test system: ACHN
[18] = test system: U-251
[19] = test system: M14
[20] = test system: HCT-15
[21] = test system: UACC-257
[22] = test system: HT-29
[23] = test system: A549
[24] = test system: HOP-62
[25] = test system: HOP-92
[26] = test system: DMS-273
[27] = test system: IGROV-1
[28] = test system: LOX IMVI
[29] = test system: EKVX
[30] = test system: KM12
[31] = test system: OVCAR-3
[32] = test system: LXFL 529
[33] = test system: SNB-19
[34] = test system: NCI-H522
[35] = test system: CAKI-1
[36] = test system: NCI-H23
[37] = test system: SNB-78
[38] = test system: HCC 2998
[39] = test system: SF-539
[40] = test system: HCT-116
[41] = test system: DLD-1
[42] = test system: OVCAR-8
[43] = test system: M19-MEL
[44] = test system: OVCAR-5
[45] = test system: RXF 393
[46] = test system: Malme-3M
[47] = test system: MOLT-4
[48] = test system: K562
[49] = test system: DMS-114
[50] = test system: RPMI-8226
[51] = test system: A498
[52] = test system: SR
[53] = test system: HL-60
[54] = test system: SNB-75
[55] = test system: CCRF-CEM
[56] = test system: HOP-18
[57] = test system: NCI-H226

NC(=O)N=C(NCc1ccccc1)NCc1ccccc1
GI50 [1]: > 100 µM (inactive)
GI50 [2]: > 100 µM (inactive)
GI50 [3]: > 100 µM (inactive)
GI50 [4]: > 100 µM (inactive)
GI50 [5]: > 100 µM (inactive)
GI50 [6]: > 100 µM (inactive)
GI50 [7]: > 100 µM (inactive)
GI50 [8]: > 100 µM (inactive)
GI50 [9]: > 100 µM (inactive)
GI50 [10]: > 100 µM (inactive)
GI50 [11]: > 100 µM (inactive)
GI50 [12]: > 100 µM (inactive)
GI50 [13]: > 100 µM (inactive)
GI50 [14]: > 100 µM (inactive)
GI50 [15]: > 100 µM (inactive)
GI50 [16]: > 100 µM (inactive)
GI50 [17]: > 100 µM (inactive)
GI50 [18]: > 100 µM (inactive)
GI50 [19]: > 100 µM (inactive)
GI50 [20]: > 100 µM
GI50 [21]: > 100 µM (inactive)
GI50 [22]: > 100 µM (inactive)
GI50 [23]: > 100 µM (inactive)
GI50 [24]: > 100 µM (inactive)
GI50 [25]: 20 µM (inactive)
GI50 [26]: > 100 µM (inactive)
GI50 [27]: > 100 µM (inactive)
GI50 [28]: > 100 µM (inactive)
GI50 [29]: > 100 µM (inactive)
GI50 [30]: > 100 µM (inactive)
GI50 [31]: > 100 µM (inactive)
GI50 [32]: > 100 µM (inactive)
GI50 [33]: > 100 µM (inactive)
GI50 [34]: > 100 µM (inactive)
GI50 [35]: > 100 µM (inactive)
GI50 [36]: > 100 µM (inactive)
GI50 [37]: > 100 µM (inactive)
GI50 [38]: > 100 µM (inactive)
GI50 [39]: > 100 µM (inactive)
GI50 [40]: > 100 µM (inactive)
GI50 [41]: > 100 µM (inactive)
GI50 [42]: > 100 µM (inactive)

CCO[C@@H]1OC(=O)[C@@](C)(C(C)=O)[C@@H]1C
GI50 [1]: 18.3 µM (inactive)
GI50 [3]: 20.1 µM (inactive)
GI50 [43]: 19.1 µM (inactive)
GI50 [4]: 20.4 µM (inactive)
GI50 [5]: 43.6 µM (inactive)
GI50 [7]: 20.9 µM (inactive)
GI50 [8]: 29 µM (inactive)
GI50 [9]: 87.7 µM (inactive)
GI50 [10]: > 100 µM (inactive)
GI50 [13]: 15.7 µM (inactive)
GI50 [44]: 60 µM (inactive)
GI50 [45]: 24.1 µM (inactive)
GI50 [15]: 37.9 µM (inactive)
GI50 [46]: 23.3 µM (inactive)
GI50 [16]: 41.4 µM (inactive)
GI50 [47]: 19.2 µM (inactive)
GI50 [17]: > 100 µM (inactive)
GI50 [18]: 21 µM (inactive)
GI50 [19]: 26 µM (inactive)
GI50 [21]: 24.4 µM (inactive)
GI50 [22]: 17.5 µM (inactive)
GI50 [24]: 20.8 µM (inactive)
GI50 [48]: 30.5 µM (inactive)
GI50 [49]: 19.1 µM (inactive)
GI50 [25]: 26.1 µM (inactive)
GI50 [27]: 36.5 µM (inactive)
GI50 [50]: 18.7 µM (inactive)
GI50 [30]: 28.4 µM (inactive)
GI50 [51]: > 100 µM (inactive)
GI50 [31]: 14.4 µM (inactive)
GI50 [52]: 25.5 µM (inactive)
GI50 [53]: 23 µM (inactive)
GI50 [32]: 19.5 µM (inactive)
GI50 [33]: 19.1 µM (inactive)
GI50 [34]: > 100 µM (inactive)
GI50 [36]: 14.5 µM (inactive)
GI50 [37]: 25 µM (inactive)
GI50 [54]: 3.27 µM (inactive)
GI50 [55]: 13 µM (inactive)

Nc1c(C(=O)N/N=C/c2ccc(Cl)cc2)sc(=S)n1-c1ccccc1
GI50 [1]: 40.8 µM (inactive)
GI50 [3]: > 100 µM (inactive)
GI50 [43]: > 100 µM (inactive)
GI50 [5]: > 100 µM (inactive)
GI50 [7]: > 100 µM (inactive)
GI50 [9]: > 100 µM (inactive)
GI50 [56]: > 100 µM (inactive)
GI50 [10]: 89.1 µM (inactive)
GI50 [11]: 58.2 µM (inactive)
GI50 [12]: > 100 µM (inactive)
GI50 [13]: 41.9 µM (inactive)
GI50 [44]: > 100 µM (inactive)
GI50 [14]: > 100 µM (inactive)
GI50 [15]: > 100 µM (inactive)
GI50 [17]: > 100 µM (inactive)
GI50 [18]: > 10 µM (inactive)
GI50 [21]: > 100 µM (inactive)
GI50 [22]: > 100 µM (inactive)
GI50 [23]: > 100 µM (inactive)
GI50 [24]: > 100 µM (inactive)
GI50 [48]: 4.09 µM (inactive)
GI50 [25]: > 100 µM (inactive)
GI50 [27]: > 100 µM (inactive)
GI50 [30]: > 100 µM (inactive)
GI50 [51]: > 100 µM (inactive)
GI50 [31]: > 100 µM (inactive)
GI50 [53]: > 100 µM (inactive)
GI50 [32]: > 100 µM (inactive)
GI50 [33]: > 100 µM (inactive)
GI50 [34]: 31.6 µM (inactive)
GI50 [36]: > 100 µM (inactive)
GI50 [57]: > 100 µM (inactive)
GI50 [38]: > 100 µM (inactive)
GI50 [39]: 62.8 µM (inactive)
GI50 [40]: > 100 µM (inactive)
GI50 [41]: > 100 µM (inactive)
GI50 [54]: 84.7 µM (inactive)
GI50 [55]: 22.3 µM (inactive)
GI50 [42]: > 100 µM (inactive)

From ChEMBL document CHEMBL1201862, “PubChem BioAssay data set” (2004)
